# According to PMC10239048, “Synthesis and antioxidant, antimicrobial, and antiviral activity of some pyrazole-based heterocycles using a 2(3H)-furanone derivative” (Journal of the Iranian Chemical Society, 2023):
# Assays:
# [1] = Total antioxidant capacity (TAC), phosphomolybdenum method; details: for Total antioxidant capacity: 500 µg/ml in methanol, 95 °C 90 min, 695 nm, means ± S.D., n = 3
# [2] = tested on: avian influenza HPAI-H5N1 (AIV); design: species or system avian influenza virus HPAI-H5N1; details: in vivo
# [3] = tested on: avian influenza HPAI-H5N1 (AIV); design: species or system avian influenza virus HPAI-H5N1; details: in vivo; remark: listed apart in the source
# [4] = tested on: Staphylococcus aureus; assay: MIC measurement by serial dilution, Staphylococcus aureus; type: cell-based; details: 37 °C, 24–72 h, read-out: MIC Staph (Gram + ve)
# [5] = tested on: Haemophilus (Gram –ve); assay: Agar/disk diffusion inhibition zone, Haemophilus; type: cell-based; details: diffusion method
# [6] = tested on: Candida albicans; assay: Agar diffusion antifungal activity, Candida albicans; type: cell-based; details: diffusion method
# [7] = tested on: Haemophilus (Gram –ve); assay: MIC measurement by serial dilution, Haemophilus; type: cell-based; details: read-out: MIC Haemophilus (Gram –ve)
# [8] = tested on: SPF chicks; assay: Immune-boosting properties in vaccinated SPF chicks (humeral response); type: in vivo, chicken; details: for Humeral response of vaccinated groups which received each tested compound separately: SPF chicks, vaccine-only group 7 log2
# [9] = tested on: embryonated chicken SPF eggs; details: in vivo
# [10] = tested on: Staphylococcus aureus; assay: Agar/disk diffusion inhibition zone, Staphylococcus aureus; type: cell-based; details: diffusion method
SMILES,melting point,Antioxidant activity (in words) [1],Total antioxidant capacity [1],TI [2],Antiviral activity against avian influenza virus (in words) [3],Virus titer with compound [3],MIC [4],Inhibition diameter Haemophilus (Gram –ve) [5],Candida albicans (diameter of inhibition zone) [6],MIC [7],Humeral response of vaccinated groups which received each tested compound separately [8],CC50 [9],Inhibition diameter Staph (Gram + ve) [10],Immune-boosting properties (in words) ([8]; antibody titer in serum of vaccinated chicks)
Cc1ccc(C2=CC(=Cc3c(C)nn(-c4ccccc4)c3Cl)C(=O)N2Cc2ccccc2)cc1,152 to 154 °C,,,,,,,,,,,,,
"CC(=O)NN1C(=O)C(=Cc2c(C)nn(-c3ccccc3)c2Cl)C=C1c1ccc(C)cc1 [Compound 12, N-(3-((5-Chloro-3-methyl-1-phenyl-1H-pyrazol-4-yl)methylene)-2-oxo-5-(p-tolyl)-2,3-dihydro-1H-pyrrol-1-yl)acetamide]",114 to 116 °C,Moderate antioxidant activity,163.0 ± 1.75 mg AAE/g dry compound,,,,,,,,,,,
"Cc1ccc(C2=CC(=Cc3c(C)nn(-c4ccccc4)c3Cl)C(=O)N2N=Cc2ccc(Cl)cc2)cc1 [Compound 15, 3-((5-Chloro-3-methyl-1-phenyl-1H-pyrazol-4-yl)methylene)-1-((4-chlorobenzylidene)-amino)-5-(p-tolyl)-1,3-dihydro-2H-pyrrol-2-one]",,,262.27 ± 2.51 mg AAE/g dry compound,55.5,little antiviral activity,10^5,18 µg/mL,7 mm,6 mm,16 µg/mL,6.6 log2,500 > µl/ egg,6 mm,
"Cc1ccc(C(=O)CC(=Cc2c(C)nn(-c3ccccc3)c2Cl)C(=O)NN=Cc2cn(-c3ccccc3)nc2-c2ccccc2)cc1 [Compound 16, 2-((5-Chloro-3-methyl-1-phenyl-1H-pyrazol-4-yl)methylene)-N'-((1,3-diphenyl-1H-pyrazol-4-yl)methylene)-4-oxo-4-(p-tolyl)butanehydrazide]",,,205.82 ± 2.45 mg AAE/g dry compound,83.3,remarked antiviral activity,10^1,5 µg/mL,23 mm,23 mm,6 µg/mL,7.2 log2,500 > µl/ egg,22 mm,special immune-boosting properties
